Results from patent US20170000132A1, “BENZOXABOROLE FUNGICIDES” (SYNGENTA PARTICIPATIONS AG, priority 2013, published 2017).

Experiments:
Puccinia recondita = Puccinia recondita / wheat plants, spray chamber; format: in vivo; details: 20 ppm; 1 week old wheat plants cv. Arina, sprayed 2 days before inoculation, assessed 10 days after inoculation
Method: Fungicidal Activity Against Puccinia recondita/Wheat 1 week old wheat plants cv. Arina were treated with the formulated test compound in a spray chamber. Two days after application wheat plants were inoculated by spraying a spore suspension (1×105 uredospores/ml) on the test plants. After an incubation period of 1 day at […] and 95% r. h. plants were kept for 9 days at […] and 60% r.h. in a greenhouse. The disease incidence was assessed 10 days after inoculation.

[1] = system: Giberella zeae (Fusarium graminearum); format: in vivo; details: 200 ppm; wheat spikelets, preventative, assessed 6 dpi; compared to untreated control
[2] = system: Monographella nivale (Microdochium nivale); assay: Monographella nivale / wheat pouch test with infected seeds; format: in vivo, M. nivale; details: 60 ppm; infected wheat seeds cv. Arina in pouch, 4 weeks after sowing; compared to untreated control
Method: Fungicidal Activity Against Monographella nivale (Microdochium nivale)/Wheat
Formulated test compound is applied into a pouch which was previously equipped with a filter paper. After the application wheat seeds cv. Arina infected with M. nivale are sown into the upper fault of the filter paper. The pouches are then incubated for 7 days in the dark at 7° C./5° C. (day/night) and 80% r. h. After 1 week light is supplied at the same temperature cycle. Another two weeks later plants were transferred to 17° C./16° C. (day/night) and 80% r. H. The disease incidence is assessed 4 weeks after sowing.

Phytophthora infestans = format: in vivo; details: 200 ppm; tomato leaf disks, preventative; compared to untreated control

Compound: OB1OCc2cc(Cl)c(C=NOCC=C(Cl)Cl)cc21 (single isomer, unassigned) [Compound 50]
- disease control (disease incidence) (Puccinia recondita): at least 80%

Compound: COC(=O)Cc1ccccc1CON=Cc1cc2c(cc1Cl)COB2O (single isomer, unassigned) [Compound 59]
- disease control [1]: at least 80%

Compound: CCOC(=O)CNN=Cc1cc2c(cc1Cl)COB2O (single isomer, unassigned) [Compound 70]
- disease control (disease incidence) [2]: at least 80%

Compound: CNC(=S)NN=Cc1cc(Cl)cc2c1B(O)OC2 (single isomer, unassigned) [Compound 224]
- disease control (Phytophthora infestans): at least 80%
